Assay results from patent US20130252930A1 (BIOMARIN PHARMACEUTICAL INC., priority 2010, published 2013).
pIC50: −log10 of the molar value.

Tests used:
[1] = system: rat Cyp11B enzyme (rat adrenal mitochondria); assay: CYP11B enzymatic assay (% inhibition at 100 nM) (Biological Example 9); type: biochemical; details: compound at 100 nM
Procedure: Adrenals excised from Sprague Dawley rats were homogenized, and mitochondria fraction were prepared by a series of centrifugation as described in Shuji Ohno, et al. J. of Steroid Biochemistry & Molecular Biology 2002, 80, 355-363. Prepared mitochondria protein was washed and resuspended in Buffer B (0.21 M mannitol, 70 mM sucrose, 5 mM MgCl2, 0.5 mM CaCl2, 20 mM Tris-HCl (pH 7.4) and 1 mM DTT, […]). The protein concentration was determined by BCA assay and stored as 10 μL aliquots at −80° C.
The rat Cyp11B enzyme assay was performed in 96-well plates. Typical assays were carried out in total 50 μL volume that included test compounds at 100 nM concentration, 1× Buffer B, 0.5 mM NADPH, 0.1 μM 11-deoxycortisol, and 2 μL of prepared rat adrenal mitochondria (added last). Reaction without test compound served as positive control and reaction without NADPH served as negative control. Reactions were allowed to incubate at 37° C. for 60 min with gentle shaking. The reaction was stopped by directly applying the enzymatic reaction mixture (1:5 diluted in ELISA assay buffer) to ELISA plate for evaluation of cortisol concentration according to manufacturer's protocol (Assay Design).
The mean absorbance value for each sample was used to determine the corresponding concentration from the standard curve. Amount of cortisol in the negative control (reaction that dis not include NADPH) was subtracted from total cortisol. Percent inhibition (inhibition %) of the compound was calculated using normalized cortisol concentration based on following formula: 100−([Cortisol] of compound/[Cortisol] of positive control *100).

[2] = molecular target: T1, CYP17 (human testicular microsome) (Homo sapiens, UniProt P05093); assay: CYP17 enzymatic assay (IC50) (Biological Example 4); type: biochemical; details: human testicular microsome; read-out: CYP17 enzymatic assay IC50 (Biological Example No. 4)
T1 construct: using microsomal fraction from human testis (Celsis Cat #S00110) as the enzyme source; tissue Celsis S00110; host or cells: human testis microsomal fraction
T1 sequence (P05093 1-508): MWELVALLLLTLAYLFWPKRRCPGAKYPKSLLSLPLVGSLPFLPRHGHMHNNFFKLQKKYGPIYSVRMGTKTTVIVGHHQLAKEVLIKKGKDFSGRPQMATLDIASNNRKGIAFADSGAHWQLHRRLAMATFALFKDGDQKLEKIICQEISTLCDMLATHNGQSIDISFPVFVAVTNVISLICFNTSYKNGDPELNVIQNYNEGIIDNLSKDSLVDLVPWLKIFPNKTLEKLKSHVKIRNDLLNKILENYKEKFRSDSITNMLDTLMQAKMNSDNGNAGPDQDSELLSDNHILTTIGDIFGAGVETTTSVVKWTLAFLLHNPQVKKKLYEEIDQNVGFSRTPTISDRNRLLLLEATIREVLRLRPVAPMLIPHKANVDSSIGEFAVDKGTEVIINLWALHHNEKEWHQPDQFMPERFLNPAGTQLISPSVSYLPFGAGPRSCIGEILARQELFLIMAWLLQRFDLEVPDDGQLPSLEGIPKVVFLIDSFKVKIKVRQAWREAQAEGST

[3] = molecular target: T1, CYP17 (human testicular microsome); assay: CYP17 enzymatic assay (% inhibition at 10 nM), version 1 (Biological Example 5); type: biochemical; details: compound at 10 nM, read-out: CYP17 enzymatic assay % inhibition at 10 nM (Biological Example No. 5)
[4] = Human liver microsome stability assay (Biological Example 8b); details: liver microsomes, pH 7.4
[5] = molecular target: T1, CYP17 (human testicular microsome); assay: CYP17 enzymatic assay (% inhibition at 1 nM) (Biological Example 12); type: biochemical; details: compound at 1 nM, read-out: CYP17 enzymatic assay % inhibition at 1 nM (Biological Example No. 12)
[6] = molecular target: T2, Cyp21 enzyme (Human HEK 293-Cyp21 stable transfected cells) (Homo sapiens, UniProt P08686); assay: CYP21-HEK293 enzymatic assay (IC50) (Biological Example 11); type: cell-based; details: HEK 293-Cyp21 cells; read-out: CYP21-HEK293 enzymatic assay IC50 (Biological Example No. 11)
T2 construct: expressed in transfected cells
T2 sequence (P08686 1-495): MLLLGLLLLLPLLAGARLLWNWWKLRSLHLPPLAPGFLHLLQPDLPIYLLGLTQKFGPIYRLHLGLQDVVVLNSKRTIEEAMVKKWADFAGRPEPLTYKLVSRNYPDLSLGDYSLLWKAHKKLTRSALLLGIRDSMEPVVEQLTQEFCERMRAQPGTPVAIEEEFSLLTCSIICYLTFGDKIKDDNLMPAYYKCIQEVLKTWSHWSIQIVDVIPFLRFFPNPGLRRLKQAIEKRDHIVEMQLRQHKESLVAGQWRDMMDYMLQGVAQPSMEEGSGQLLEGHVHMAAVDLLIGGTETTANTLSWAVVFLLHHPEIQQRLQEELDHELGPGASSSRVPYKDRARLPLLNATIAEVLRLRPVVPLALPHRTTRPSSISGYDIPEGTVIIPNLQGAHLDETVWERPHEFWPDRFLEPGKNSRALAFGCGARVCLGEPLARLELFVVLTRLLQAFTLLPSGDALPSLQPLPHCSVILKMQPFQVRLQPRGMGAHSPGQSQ

[7] = molecular target: T3, CYP17 (H295R cells) (Homo sapiens, UniProt P05093); assay: CYP17 cellular assay (IC50), testosterone in H295R cells (Biological Example 7); type: cell-based; details: H295R cells, testosterone; read-out: CYP17 cellular assay IC50 (Biological Example No. 7)
T3 construct: endogenous in cells; host or cells: H295R cells
T3 sequence (P05093 1-508): T1 sequence (P05093 1-508)
Summary of the method: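 H295R cells cultured 24 h, then exposed to compound at 100, 10, 1, 0.1 nM final in serum-free DMEM/F-12 with ITS+ and 0.1% methanol for 24 h at 37 °C. Medium testosterone measured by ELISA and plotted against compound concentration.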

| Compound | pIC50 [2] | inhibition at 0.01 µM [3] [%] | half-life at 1 μM [4] [min] | inhibition at 0.001 µM [5] [%] | pIC50 [6] | pIC50 [7] | CYP11B enzymatic assay % inhibition at 100 nM (Biological Example No. 9) [1] |
| --- | --- | --- | --- | --- | --- | --- | --- |
| CN1C(=O)CCC[C@@]2(C)C1=CCC1C2CC[C@]2(C)C(c3cccnc3)=CCC12 (stereo partly drawn) [Compound 180, (5aR,7aS)-1,5a,7a-trimethyl-8-(pyridin-3-yl)-3,4,5,5a,5b,6,7,7a,10,10a,10b,11-dodecahydrocyclopenta[5,6]naphtho[2,1-b]azepin-2(1H)-one] | > 7.96 | > 80 | 1 to 50 |  |  |  | U (U means the compound had a percent inhibition of greater than or equal to 32%) |
| COc1cncc(C2=CCC3C4CC=C5N(C)C(=O)CCC[C@]5(C)C4CC[C@]23C)c1 (stereo partly drawn) [Compound 181, (5aR,7aS)-8-(5-methoxypyridin-3-yl)-1,5a,7a-trimethyl-3,4,5,5a,5b,6,7,7a,10,10a,10b,11-dodecahydrocyclopenta[5,6]naphtho[2,1-b]azepin-2(1H)-one] |  | > 80 | 1 to 50 |  |  |  | U (U means the compound had a percent inhibition of greater than or equal to 32%) |
| COc1cncc(C2=CCC3C4CC=C5N(C)C(=O)C[C@]5(C)C4CC[C@]23C)c1 (stereo partly drawn) [Compound 187, (3aR,5aS)-6-(5-methoxypyridin-3-yl)-1,3a,5a-trimethyl-3,3a,3b,4,5,5a,8,8a,8b,9-decahydroindeno[5,4-e]indol-2(1H)-one] | > 7.96 |  | 1 to 50 | > 50 |  |  | T (T means the compound had a percent inhibition of less than 32% when tested at 100 nM) |
| CCC(=O)N1CCC[C@@]2(C)C(CCC3C2CC[C@]2(C)C(c4cccnc4)=CCC32)C1 (stereo partly drawn) [Compound 435, 1-((5aR,7aS)-5a,7a-dimethyl-8-(pyridin-3-yl)-3,4,5,5a,5b,6,7,7a,10,10a,10b,11,12,12a-tetradecahydrocyclopenta[5,6]naphtho[2,1-c]azepin-2(1H)-yl)propan-1-one] | > 7.96 |  |  | 10 to 50 | < 6.00 |  | U (U means the compound had a percent inhibition of greater than or equal to 32%) |
| CCC(=O)N1CCC2CCC3C(CC[C@]4(C)C(c5cccnc5)=CCC34)[C@@]2(C)CC1 (stereo partly drawn) [Compound 436, 1-((5aS,7aS)-5a,7a-dimethyl-8-(pyridin-3-yl)-1,2,5,5a,5b,6,7,7a,10,10a,10b,11,12,12a-tetradecahydrocyclopenta[5,6]naphtho[1,2-d]azepin-3(4H)-yl)propan-1-one] | > 7.96 |  |  | 10 to 50 | < 6.00 |  | T (T means the compound had a percent inhibition of less than 32% when tested at 100 nM) |
| COC(=O)N1CCC[C@@]2(C)[C@@H](CC[C@@H]3[C@@H]2CC[C@]2(C)C(n4ccnc4)=CC[C@@H]32)C1 [Compound 442, (5aR,5bS,7aS,10aS,10bR,12aR)-methyl 8-(1H-imidazol-1-yl)-5a,7a-dimethyl-3,4,5,5a,5b,6,7,7a,10,10a,10b,11,12,12a-tetradecahydrocyclopenta[5,6]naphtho[2,1-c]azepine-2(1H)-carboxylate] |  |  |  | 10 to 50 | < 7.00 |  | U (U means the compound had a percent inhibition of greater than or equal to 32%) |
| Cc1ccncc1C1=CCC2C3CN(C)C4=CC(=O)CC[C@]4(C)C3CC[C@]12C (stereo partly drawn) [Compound 444, (9aR,11aS)-5,9a,11a-trimethyl-1-(4-methylpyridin-3-yl)-3b,4,5,8,9,9a,9b,10,11,11a-decahydro-3H-cyclopenta[i]phenanthridin-7(3aH)-one] |  |  |  | 10 to 50 |  | > 7.82 | U (U means the compound had a percent inhibition of greater than or equal to 32%) |

The next lines start with results.

| pIC50 [2] | inhibition at 0.01 µM [3] [%] | half-life at 1 μM [4] [min] | inhibition at 0.001 µM [5] [%] | pIC50 [6] | pIC50 [7] | Compound | CYP11B enzymatic assay % inhibition at 100 nM (Biological Example No. 9) [1] |
| --- | --- | --- | --- | --- | --- | --- | --- |
|  | 50 to 80 |  |  |  |  | Cc1cncc(C2=CCC3C4CC=C5N(C)C(=O)CCC[C@]5(C)C4CC[C@]23C)c1 (stereo partly drawn) [Compound 182, (5aR,7aS)-1,5a,7a-trimethyl-8-(5-methylpyridin-3-yl)-3,4,5,5a,5b,6,7,7a,10,10a,10b,11-dodecahydrocyclopenta[5,6]naphtho[2,1-b]azepin-2(1H)-one] | U (U means the compound had a percent inhibition of greater than or equal to 32%) |
|  | 50 to 80 |  |  |  |  | CN1C(=O)CC[C@@]2(C)C1=CC[C@@H]1[C@@H]2CC[C@]2(C)C(n3ccnc3)=CC[C@@H]12 [Compound 183, (4aR,6aS)-7-(1H-imidazol-1-yl)-1,4a,6a-trimethyl-4,4a,4b,5,6,6a,9,9a,9b,10-decahydro-1H-indeno[5,4-f]quinolin-2(3H)-one] | U (U means the compound had a percent inhibition of greater than or equal to 32%) |
| > 7.96 |  |  | > 50 | < 6.00 |  | CCCC(=O)N1CCC2CC[C@@H]3[C@H](CC[C@]4(C)C(n5ccnc5)=CC[C@@H]34)[C@@]2(C)CC1 (stereo partly drawn) [Compound 434, 1-((5aS,7aS)-8-(1H-imidazol-1-yl)-5a,7a-dimethyl-1,2,5,5a,5b,6,7,7a,10,10a,10b,11,12,12a-tetradecahydrocyclopenta[5,6]naphtho[1,2-d]azepin-3(4H)-yl)butan-1-one] | T (T means the compound had a percent inhibition of less than 32% when tested at 100 nM) |
| > 7.96 |  |  | 10 to 50 | 7.00 to 8.00 |  | CCC(=O)N1CCC[C@@]2(C)[C@@H](CC[C@@H]3[C@@H]2CC[C@]2(C)C(n4ccnc4)=CC[C@@H]32)C1 [Compound 441, 1-((5aR,5bS,7aS,10aS,10bR,12aR)-8-(1H-imidazol-1-yl)-5a,7a-dimethyl-3,4,5,5a,5b,6,7,7a,10,10a,10b,11,12,12a-tetradecahydrocyclopenta[5,6]naphtho[2,1-c]azepin-2(1H)-yl)propan-1-one] | U (U means the compound had a percent inhibition of greater than or equal to 32%) |
